Measured values reported in US6969600B2, “Carbonyl reductase, method for producing said enzyme, DNA encoding said enzyme, and method for producing alcohol using said enzyme” (Daicel Chemical Industries, Ltd., priority 1998, dated 2005).

Assays:
carbonyl reductase [1] = assay: Substrate specificity: reductase activity with various ketones and aldehydes in the presence of a coenzyme; format: biochemical, Kluyveromyces aestuarii; design: concentration or dose not given beside the values; settings: reduction reaction, ethyl 4-chloroacetoacetate with NADH taken as 100
Experimental: (§1) A decrease of absorbance at 340 nm, following a decrease of NADH, is measured during the reaction at 30 in a reaction mixture containing 50 mM potassium phosphate buffer (pH 6.5), 0.2 mM NADH, 20 mM ethyl 4-chloroacetoacetate, and the enzyme. One unit of the enzyme of the present invention is defined as the amount required to decrease […] of NADH in 1 min. A protein is quantitated by the dye-binding method using a Protein Assay Kit (BioRad).
(§2) The reductase activity of the enzyme obtained in Example 1 was measured by reacting the enzyme with various ketones and aldehydes in the presence of a coenzyme. The results are shown in Table 2 as the activity relative to that of ethyl 4-chloroacetoacetate in the presence of NADH that is taken as 100.

carbonyl reductase [2] = assay: Substrate specificity: NAD+-dependent dehydrogenase (oxidation) activity; format: biochemical, Kluyveromyces aestuarii; design: Relative activity (%): concentration or dose not given beside the values; settings: for Relative activity (%): oxidation reaction, coenzyme NAD+, reduction of ethyl 4-chloroacetoacetate with NADH taken as 100; for NAD+-dependent dehydrogenase activity (in words): substrate with NAD+
Experimental: The enzyme contacts the substrate, 4-halo-3-hydroxybutyrate ester, in the presence of NAD^+, and the change (per unit time) of the absorbance at 340 nm, which is accompanied with an increase or decrease of NADH, is measured.
as §2

carbonyl reductase [3] = assay: Influence of inhibitors on the carbonyl reductase (residual reductase activity); format: biochemical, Kluyveromyces aestuarii; settings: for Residual activity: 30, 10 min, activity without any reagent taken as 100
Experimental: as §1
The enzyme obtained in Example 1 was incubated at 30 for 10 min in the presence of various reagents, and its reductase activity to […] was measured. The results are shown in Table 3 as the residual activity to that obtained without any reagent that is taken as 100.

[4] = format: physicochemical, Kluyveromyces aestuarii
Experimental: The enzyme obtained in Example 1 was incubated at pH 8.0 for 10 min at 30, 37, 45, 50, and 55; the reductase activity of each incubation mixture to ethyl 4-chloroacetoacetate was then measured. The results are shown in FIG. 5 as the residual activity to the activity of the untreated enzyme that is taken as 100.

[5] = 4-chloroacetoacetate ester-reducing activity of the purified enzyme; format: biochemical, Kluyveromyces aestuarii; settings: 20 mM ethyl 4-chloroacetoacetate, 0.2 mM NADH, pH 6.5; after Superdex 200
Experimental: as §1
Kluyveromyces aestuarii IFO 10597 was cultured in 20 L of YM medium containing 24 g/L glucose, 3 g/L yeast extract, 3 g/L malt extract, and 5 g/L peptone (pH 6.0). The cultured cells were harvested by centrifugation. […]
The activity of the carbonyl reductase was detected in three fractions, a passed-through fraction and two gradient-eluted fractions. […]
The concentrated enzyme solution was adjusted to 20% saturation with ammonium sulfate and was applied to a butyl-Toyopearl 650M column (1.6 cm×5 cm) equilibrated with the standard buffer containing 20% saturation ammonium sulfate. […] The peak of the activity of the carbonyl reductase was detected in two eluted fractions. […]
The active fractions obtained by gel filtration were concentrated and analyzed by polyacrylamide gel electrophoresis (PAGE). The enzyme was detected as a substantially single band (FIG. 1). […]

Molecule: CC(=O)C(C)=O [2,3-butandione]
- Relative activity (%) (carbonyl reductase [1]; coenzyme NADH): 70.6%

Molecule: CCC(=O)C(C)=O [2,3-pentandione]
- Relative activity (%) (carbonyl reductase [1]; coenzyme NADH): 8.2%

Molecule: CC(=O)CC(C)=O [2,4-pentandione]
- Relative activity (%) (carbonyl reductase [1]; coenzyme NADH): 0%

Molecule: CC(=O)c1ccccc1 [Acetophenone]
- Relative activity (%) (carbonyl reductase [1]; coenzyme NADH): 0%

Molecule: CC(C)O [Isopropanol]
- Relative activity (%) (carbonyl reductase [2]): 0%
- NAD+-dependent dehydrogenase activity (in words) (carbonyl reductase [2]): does not substantially dehydrogenate

Molecule: CC(=O)C=O [Methylglyoxal]
- Relative activity (%) (carbonyl reductase [1]; coenzyme NADH): 0%

Molecule: O=S(=O)(F)Cc1ccccc1 [Phenylmethanesulfonyl fluoride]
- Residual activity (carbonyl reductase [3]; inhibitor 1 mM): 99.0

Molecule: CCC=O [Propionaldehyde]
- Relative activity (%) (carbonyl reductase [1]; coenzyme NADH): 2.5%

Molecule: CCC1(CC)C(=O)NC(=O)NC1=O [barbital]
- Inhibition of the carbonyl reductase (in words) (carbonyl reductase [3]): not and not inhibited
- Residual activity (carbonyl reductase [3]; inhibitor 1 mM): 101

Molecule: O=S(=O)([O-])[O-].[Cu+2] [copper sulfate]
- Inhibition of the carbonyl reductase (in words) (carbonyl reductase [3]): significantly inhibited
- Residual activity (carbonyl reductase [3]; inhibitor 1 mM): 19.0

Molecule: CCOC(=O)CC(=O)CCl [ethyl 4-chloroacetoacetate]
- Relative activity (%) (carbonyl reductase [1]; coenzyme NADH): 100%
- Relative activity (%) (carbonyl reductase [1]; coenzyme NADPH): 6.4%

Molecule: CCOC(=O)C[C@@H](C)O [ethyl (R)-3-hydroxybutyrate]
- Relative activity (%) (carbonyl reductase [2]): 1.9%

Molecule: CCOC(=O)C[C@@H](O)CCl [ethyl (R)-4-chloro-3-hydroxybutyrate]
- Relative activity (%) (carbonyl reductase [2]): 0%
- NAD+-dependent dehydrogenase activity (in words) (carbonyl reductase [2]): did not show any

Molecule: CCOC(=O)C[C@H](C)O [ethyl (S)-3-hydroxybutyrate]
- Relative activity (%) (carbonyl reductase [2]): 0%

Molecule: CCOC(=O)C[C@H](O)CCl [ethyl (S)-4-chloro-3-hydroxybutyrate]
- Relative activity (%) (carbonyl reductase [2]): 0%
- NAD+-dependent dehydrogenase activity (in words) (carbonyl reductase [2]): did not show any

Molecule: CCOC(=O)CC(C)=O [ethyl acetoacetate]
- Relative activity (%) (carbonyl reductase [1]; coenzyme NADH): 0%

Molecule: NC(=O)CI [iodoacetamide]
- Inhibition of the carbonyl reductase (in words) (carbonyl reductase [3]): weakly inhibited
- Residual activity (carbonyl reductase [3]; inhibitor 1 mM): 84.0

Molecule: COC(=O)CC(=O)CCl [methyl 4-chloroacetoacetate]
- Relative activity (%) (carbonyl reductase [1]; coenzyme NADH): 13.1%

Molecule: COC(=O)CC(C)=O [methyl acetoacetate]
- Relative activity (%) (carbonyl reductase [1]; coenzyme NADH): 0%

Molecule: O=C(O)c1cc[c]([Hg][Cl])cc1 [p-chloromercuribenzoic acid]
- Inhibition of the carbonyl reductase (in words) (carbonyl reductase [3]): significantly inhibited
- Residual activity (carbonyl reductase [3]; inhibitor 0.05 mM): 0

Molecule: O=Cc1cccnc1 [pyridin-3-aldehyde]
- Relative activity (%) (carbonyl reductase [1]; coenzyme NADH): 0%

Molecule: O=c1c(O)c(-c2ccc(O)c(O)c2)oc2cc(O)cc(O)c12 [quercetin]
- Inhibition of the carbonyl reductase (in words) (carbonyl reductase [3]): not and not inhibited
- Residual activity (carbonyl reductase [3]; inhibitor 0.1 mM): 94.0

B1: carbonyl reductase: NADH-dependent carbonyl reductase purified from Kluyveromyces aestuarii IFO 10597; amino acid sequence SEQ ID NO: 2 (protein, listed as Kluyveromyces aestuarii)
chain: MTFQHFLRGGLEDKTVPQEPPKEQYPDGVNYLSLFSQKGKLTVITGGAGAIGGALCEGFASCGSDVVILDYKYSPELSSVLESRYGVRSKSYQVDITSSEDVKLVVAKILEDFPDRDINTFVANAGIAWTNGSILNENATPDVWKRVMDVNVQGTYHCAKYVAEVFKQQGHGNLILTASMSSYISNVPNYQTCYNASKAAVRHMAKGFAVEFAHLTNPAGKIRCNSVSPGYTDTALSAFVPVEQRAQWWGLTPMGREALPQELVGAYLYLASDAASFTNGCDIQVDGGYTCV
- Thermostability (relatively stable up to) [4]: up to 40
- Residual activity after heat incubation ([4]; pH 8.0, 10 min, up to 37, untreated enzyme taken as 100): ≥ 75%
- Specific activity of the purified enzyme [5]: about 28.6 U/mg
